Reference: patent US9572855B2, “Combination anti-estrogen receptor cancer therapy using MUC1 peptides and chemotherapeutics” (DANA-FARBER CANCER INSTITUTE, INC., priority 2013, dated 2017)
Non-standard residues stand in square brackets, D forms with d. Residues, ends and D or L forms follow the SMILES beside them.

Legend:
MCF-7/MUC1-C cells [1] = test: Cell death by trypan blue staining; assay type: cell-based, human
Excerpt: (§1) (FIG. 2B) Control MCF-7/vector (diamonds) and MCF-7/MUC1-C (triangles) cells were left untreated.

BT-474/MUC1shRNA cells [2] = details: 5 μM tamoxifen on days 0 and 2 (FIG. 1B)
Excerpt: (§2) The multiple effect-level isobologram analyses are shown for the ED50 (X), ED75 (+) and ED90 (⊙) values.

[3] = system: MCF-7/MUC1-C/MUC1shRNA cells; test: Cell growth (viable cell number); assay type: cell-based, human; details: 5 μM tamoxifen days 0 and 2 (FIG. 6B)
Excerpt: (§3) (FIG. 6A) MCF-7/MUC1-C cells were infected with lentiviruses expressing the control shRNA (CshRNA) or the MUC1shRNA. Lysates from wild-type (WT) MCF-7 cells, MCF-7/MUC1-C/CshRNA and MCF-7/MUC1-C/MUC1shRNA cells were immunoblotted with the indicated antibodies. […] The results (mean±SD of three replicates) are expressed as viable cell number. […] The multiple effect-level isobologram analyses are shown for the ED50 (X), ED75 (+) and ED90 (⊙) values.

BT-474/CshRNA cells [4] = test: Cell growth (viable cell number); Chou-Talalay drug combination; assay type: cell-based, human; details: BT-474 and BT-474/CshRNA cells; 5 μM tamoxifen on days 0 and 2; vs untreated (FIG. 1B)
BT-474/MUC1shRNA cells [5] = test: Colony formation assay; assay type: cell-based, human; details: 5 μM tamoxifen every other day for 14 days (FIG. 1E, right)
Method: (§4) Colony formation assays. Cells were seeded in 6-well plates for 24 h and then left untreated or treated with inhibitor. After 7-14 d, the cells were washed and stained with 0.5% crystal violet in 25% methanol. Colonies >30 cells were counted in triplicate wells.

MCF-7/vector cells [6] = test: Cell growth (cell number); Chou-Talalay drug combination; assay type: cell-based, human; details: MCF-7 and MCF-7/vector cells; 5 μM tamoxifen on days 0, 2 and 4 (FIG. 2B)
Excerpt: as §2

MCF-7/MUC1-C cells [7] = test: Cell growth (viable cell number); Chou-Talalay drug combination; assay type: cell-based, human; details: 5 μM tamoxifen on days 0, 2 and 4 (FIG. 2B)
Excerpt: Lysates were immunoblotted with the indicated antibodies. […] Lysates were immunoblotted with the indicated antibodies.
as §3

MCF-7/vector cells [8] = test: Colony formation assay; assay type: cell-based, human; details: 5 μM tamoxifen every other day for 7 days (FIG. 2E, left)
Excerpt: (FIG. 2A) Lysates from wild-type (WT) MCF-7 cells, MCF-7/vector and MCF-7/MUC1-C cells were immunoblotted with the indicated antibodies. (FIG. 2B) Control MCF-7/vector (diamonds) and MCF-7/MUC1-C (triangles) cells were left untreated. […] Cell number is expressed as the mean±SD of three replicates. […] The results (mean±SD of three replicates) are expressed as the percentage of cell death as determined by trypan blue staining on the indicated days (left) or on day 4 (right). (FIG. 2D) MCF-7/vector and MCF-7/MUC1-C cells were seeded at 500 cells/well (6-well plate), grown for 7 days and then stained with crystal violet (left). Colony number (>30 cells) is expressed as the mean±SD of three replicates (right). […] Colony number (>30 cells) is expressed as the mean±SD of three replicates. Colony formation assays. Cells were seeded in 6-well plates for 24 h and then left untreated or treated with inhibitor. After 7-14 d, the cells were washed and stained with 0.5% crystal violet in 25% methanol. Colonies >30 cells were counted in triplicate wells.

BT-474/MUC1shRNA cells [9] = test: Cell death by trypan blue staining; assay type: cell-based, human; details: 5 μM tamoxifen on days 0 and 2; compared to BT-474/CshRNA cells (FIG. 1C, left)
Excerpt: Cell number is expressed as the mean±SD of three replicates. […] The results (mean±SD of three replicates) are expressed as the percentage of cell death as determined by trypan blue staining on the indicated days (left) or on day 4 (right). […] Colony number (>30 cells) is expressed as the mean±SD of three replicates (right). […] Colony number (>30 cells) is expressed as the mean±SD of three replicates.

MCF-7/MUC1-C cells [10] = test: Colony formation assay; assay type: cell-based, human; details: 5 μM tamoxifen every other day for 7 days (FIG. 2E, right)
Method: as §1
(§5) FIGS. 5A-G. Tamoxifen-resistant cells are sensitive to MUC1-C inhibition. […] Lysates were immunoblotted with the indicated antibodies. (FIG. 5B) BT-474/CshRNA cells were left untreated (diamonds) or treated with 5 μM GO-203 (squares) each day for the indicated days. […] Lysates were immunoblotted with the indicated antibodies. (FIG. 5E) MCF-7/MUC1-C cells were left untreated (diamonds) or treated with 5 μM GO-203 (squares) each day for the indicated days. […] Soluble chromatin was precipitated with anti-ERα (left), anti-CBP (right) or a control IgG. The precipitates were analyzed for Rab31 promoter sequences.
as §4

BT-474/CshRNA cells [11] = test: Colony formation assay; assay type: cell-based, human; details: 5 μM tamoxifen every other day for 14 days (FIG. 1E, left)
Method: as §5, §4

MUC1-negative 293T cells = test: Cell death by trypan blue staining; assay type: cell-based, human; details: GO-203 each day for 4 days, day 4 (FIG. 8)
Excerpt: FIG. 8. 293T cells were left untreated or treated with GO-203 each day for 4 days.

4-hydroxytamoxifen [OHTAM]
loss of viability (percentage of cell death) (MCF-7/MUC1-C cells [1]; 10 nM OHTAM on days 0 and 2, day 4, compared to MCF-7/vector cells (FIG. 2C, right)): less sensitive

CC/C(=C(\c1ccccc1)c1ccc(OCCN(C)C)cc1)c1ccccc1 [tamoxifen]
proliferation (cell number) (BT-474/MUC1shRNA cells [2]): clearly inhibited | sensitivity to tamoxifen treatment (viable cell number) [3]: regained sensitivity | growth (cell number) (BT-474/CshRNA cells [4]): unaffected | loss of viability (percentage of cell death) (MCF-7/MUC1-C cells [1]; 5 μM tamoxifen on days 0, 2 and 4, compared to MCF-7/vector cells (FIG. 2C, left)): less sensitive | colony formation (BT-474/MUC1shRNA cells [5]): marked decrease | growth (cell number) (MCF-7/vector cells [6]): inhibited | proliferation (cell number) (MCF-7/MUC1-C cells [7]): little effect | formation of colonies (MCF-7/vector cells [8]): effective in decreasing | loss of viability (percentage of cell death) (BT-474/MUC1shRNA cells [9]): marked loss of viability | clonogenic survival (MCF-7/MUC1-C cells [10]): but not clonogenic survival | ability to form colonies (BT-474/CshRNA cells [11]): little if any effect

N=C(N)NCCC[C@@H](N)C(=O)N[C@H](CCCNC(=N)N)C(=O)N[C@H](CCCNC(=N)N)C(=O)N[C@H](CCCNC(=N)N)C(=O)N[C@H](CCCNC(=N)N)C(=O)N[C@H](CCCNC(=N)N)C(=O)N[C@H](CCCNC(=N)N)C(=O)N[C@H](CCCNC(=N)N)C(=O)N[C@H](CCCNC(=N)N)C(=O)N[C@H](CS)C(=O)N[C@H](CCC(N)=O)C(=O)N[C@H](CS)C(=O)N[C@H](CCCNC(=N)N)C(=O)N[C@H](CCCNC(=N)N)C(=O)N[C@H](CCCCN)C(=O)N[C@H](CC(N)=O)C(=O)O [GO-203, [R]9-CQCRRKN] (H-[dR][dR][dR][dR][dR][dR][dR][dR][dR][dC][dQ][dC][dR][dR][dK][dN]-OH)
survival (percentage of cell death) (MUC1-negative 293T cells): little if any effect
